From patent publication US11897881B1, “Substituted pyrido[3,4-b]indole-3-carboxylic acids as CK2 inhibitors” (KING FAISAL UNIVERSITY, priority 2023, dated 2024)

Columns and labels:
PC3 (prostate) = experiment: In vitro cytotoxic activity assay (MTT), PC3; assay type: cell-based; details: Homo sapiens, Prostate cell; PC3 (prostate) cells, exposed for 96 hours; read-out: IC50, 50% inhibition of cell proliferation
Procedure: (§1) Compounds 1-15 were screened for their in vitro cytotoxic activity utilizing a 3-(4,5-dimethyl-thiazol-2-yl)-2,5-diphenyltetrazolium bromide (MTT) assay against selected cancer human cell lines consisting of PC3 (prostate), HCT116 (colon), A375 (melanoma), H1299 (lung), MIAPaCa-2 (pancreas), HL60 (leukemia), MCF7 (breast), MDA-MB-231 (breast) (T. Mosmann, J. Immunol. Meth., 1983, 65, 55-63). The cells were cultured at 37° C. in RMPI1640 medium supplemented with 10% fetal bovine serum, 50 IU/mL penicillin, and 50 μg/mL streptomycin in a 5% CO2 incubator. All cells were sub-cultured 3 times/week by trypsinisation. Viable cells were seeded and allowed to adhere for 12 h before a test drug was added in 96-well plates at an initial density of 1.0×10^5 cells/mL. Tumour cell lines were separately exposed to various concentrations of the tested compounds followed by incubation at a temperature of 37° C. during 96 h inside a medium of fresh RMPI 1640. Cells were subsequently incubated at 37° C. using MTT at 0.5 mg/mL during 4 h. After removal of supernatant, formazan crystals were dissolved in isopropanol and the optical density was measured at 570 nm. CX-4945 was used as a positive control.

HCT116 (colon) = experiment: In vitro cytotoxic activity assay (MTT), HCT116; assay type: cell-based; details: Homo sapiens, HCT-116; HCT116 (colon) cells, exposed for 96 hours; read-out: IC50, 50% inhibition of cell proliferation
Procedure: as §1

A375 (melanoma) = experiment: In vitro cytotoxic activity assay (MTT), A375; assay type: cell-based; details: Homo sapiens, A-375; A375 (melanoma) cells, exposed for 96 hours; read-out: IC50, 50% inhibition of cell proliferation
Procedure: as §1

H1299 (lung) = experiment: In vitro cytotoxic activity assay (MTT), H1299; assay type: cell-based; details: Homo sapiens, NCI-H1299; H1299 (lung) cells, exposed for 96 hours; read-out: IC50, 50% inhibition of cell proliferation
Procedure: as §1

MIAPaCa-2 (pancreas) = experiment: In vitro cytotoxic activity assay (MTT), MIAPaCa-2; assay type: cell-based; details: Homo sapiens, MIA PaCa-2; MIAPaCa-2 (pancreas) cells, exposed for 96 hours; read-out: IC50, 50% inhibition of cell proliferation
Procedure: as §1

HL60 (leukemia) = experiment: In vitro cytotoxic activity assay (MTT), HL60; assay type: cell-based; details: Homo sapiens, HL-60; HL60 (leukemia) cells, exposed for 96 hours; read-out: IC50, 50% inhibition of cell proliferation
Procedure: as §1

MCF7 (breast) = experiment: In vitro cytotoxic activity assay (MTT), MCF7; assay type: cell-based; details: Homo sapiens; MCF7 (breast) cells, exposed for 96 hours; read-out: IC50, 50% inhibition of cell proliferation
Procedure: as §1

MDA-MB-231 (breast) = experiment: In vitro cytotoxic activity assay (MTT), MDA-MB-231; assay type: cell-based; details: Homo sapiens; MDA-MB-231 (breast) cells, exposed for 96 hours; read-out: IC50, 50% inhibition of cell proliferation
Procedure: as §1

[1] = molecular target: T1, recombinant human CK2 (RRββ-holoenzyme) (Homo sapiens, UniProt P68400); experiment: CK2 Kinase Assay (33P-ATP, filter plate); assay type: biochemical; details: final ATP concentration 15 μM, 10 min at 30° C., eight concentrations; read-out: protein kinase CK2 IC50
T1 construct: purchased Millipore
Procedure: CK2 Kinase Assay was conducted using the protocol as described in Pierre F. et al; J. Med. Chem. 2011, 54, 635-654. The tested compounds in aqueous solution were added at a volume of 10 μL to a reaction mixture comprising 10 μL of assay dilution buffer (ADB; 20 mM MOPS, pH 7.2, 25 mM β-glycerol phosphate, 5 mM EGTA, 1 mM sodium orthovanadate, and 1 mM dithiothreitol), 10 μL of substrate peptide (RRRDDDSDDD, dissolved in ADB at a concentration of 1 mM), 10 μL of recombinant human CK2 (RRββ-holoenzyme, 25 ng dissolved in ADB; Millipore). Reactions were initiated by the addition of 10 μL of ATP solution (90% 75 mMMgCl2, 75 μM ATP (final ATP concentration:15 μM) dissolved in ADB; 10% [γ-33P] ATP (stock 1 mCi/100 μL; 3000 Ci/mmol (Perkin-Elmer) and maintained for 10 min at 30° C. The reactions were quenched with 100 μL of 0.75% phosphoric acid and then transferred to and filtered through a phosphor cellulose filter plate (Millipore). After washing each well five times with 0.75% phosphoric acid, the plate was dried under vacuum for 5 min and, following the addition of 15 μL of scintillation fluid to each well, the residual radioactivity was measured using a Wallac luminescence counter. The IC50 values were derived from eight concentrations of test inhibitors.

T1 sequence (P68400 whole entry): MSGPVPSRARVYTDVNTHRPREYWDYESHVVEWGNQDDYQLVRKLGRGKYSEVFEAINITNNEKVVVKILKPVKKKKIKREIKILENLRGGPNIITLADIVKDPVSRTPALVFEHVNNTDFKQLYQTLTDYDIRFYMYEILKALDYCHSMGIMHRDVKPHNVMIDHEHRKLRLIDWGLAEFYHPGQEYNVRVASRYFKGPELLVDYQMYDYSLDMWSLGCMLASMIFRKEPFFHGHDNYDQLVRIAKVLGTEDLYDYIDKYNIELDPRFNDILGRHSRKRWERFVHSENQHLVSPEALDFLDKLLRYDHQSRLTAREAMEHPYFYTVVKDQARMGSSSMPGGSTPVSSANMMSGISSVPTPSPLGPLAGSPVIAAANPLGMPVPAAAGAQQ
T1 sequence (P67870 whole entry partner): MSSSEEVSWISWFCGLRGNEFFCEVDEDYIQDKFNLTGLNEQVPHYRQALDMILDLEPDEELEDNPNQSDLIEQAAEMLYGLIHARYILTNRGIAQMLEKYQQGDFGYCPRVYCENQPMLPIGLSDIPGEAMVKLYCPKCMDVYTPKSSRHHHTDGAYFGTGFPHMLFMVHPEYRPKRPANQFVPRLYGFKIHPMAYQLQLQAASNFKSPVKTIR

SMILES: O=C(O)c1cc2c([nH]c3cc(O)ccc32)c(Nc2cccc(Cl)c2)n1 [Compound 1, 1-((3-chlorophenyl)amino)-7-hydroxy-9H-pyrido[3,4-b]indole-3-carboxylic Acid]
- IC50 (PC3 (prostate)): 1200 nM
- IC50 (HCT116 (colon)): 1600 nM
- IC50 (A375 (melanoma)): 5700 nM
- IC50 (H1299 (lung)): 1800 nM
- IC50 (MIAPaCa-2 (pancreas)): 3300 nM
- IC50 (HL60 (leukemia)): 4100 nM
- IC50 (MCF7 (breast)): 3200 nM
- IC50 (MDA-MB-231 (breast)): 2500 nM
- IC50 [1]: 165 nM
